Test results reported in patent US20220378936A1, “DELIVERY SYSTEM COMPLEXES COMPRISING A PRECIPITATE OF AN ACTIVE AGENT AND METHODS OF USE” (THE UNIVERSITY OF NORTH CAROLINA AT CHAPEL HILL, priority 2019, published 2022).

Assays:
CT26-FL3 cells = assay: MTT cytotoxicity assay; type: cell-based, mouse
Method: Cytotoxicity of Nano-Folox was estimated using the MTT assay with 3-(4,5-Dimethylthiazol-2-yl)-2,5-diphenyltetrazolium bromide^60. 10,000 CT26-FL3 cells per well were seeded in 96-well plates and incubated for one day. After incubation, cells were added with OxP and Nano-Folox for 24 h under normal growth conditions. Subsequently, cells were added with 20 μL MTT reagent (5 mg/mL in PBS) and incubated for 4 h at 37° C. 150 μL DMSO were used to dissolve the purple formazan products. The results were measured at 570 nm using a microplate reader. The 50% cell growth inhibition (IC50) was estimated using the GraphPad Prism software.

[1] = Aqueous solubility of stabilized nanoprecipitates; type: physicochemical; settings: DOPA-stabilized nanoprecipitates
[2] = Particle size, zeta potential and morphology of Nano-Folox (Malvern Nano-ZS, TEM); settings: FIG. 2A
Method: The measurements of particle size and zeta potential of Nano-Folox were performed using the Malvern Nano-ZS (Malvern Instruments, UK)^59. The morphology of nanoprecipitates and Nano-Folox was analyzed using transmission electron microscopy (TEM). Briefly, 5 μL Nano-Folox were added on 400-mesh carbon-filmed copper grids (Agar Scientific) for 2 min. The samples were stained with 2% (w/w) uranyl acetate before the analysis using the JEM1230 (JEOL) TEM. Alternatively, the morphology of the core was analyzed without the negative staining.

cells = settings: free FdUMP; cited from earlier work
[3] = Pharmacokinetics of platinum in orthotopic CRC mice; type: in vivo, mouse; settings: single i.v. injection, one-compartmental model
Excerpt: (§1) The orthotopic CT26-FL3 colorectal tumor model was established as previously described^31.

[4] = Tissue distribution of Nano-Folox in orthotopic CRC mice (IVIS, ICP-MS); type: in vivo, mouse; settings: 8 h after i.v. administration, 1.5 mg/kg platinum
Method: as §1
In addition, — 0.05% (wt) of lipophilic carbocyanine DiD (ThermoFisher) was used to formulate the DiD-labeled Nano-Folox (1.5 mg/kg platinum). Following 8 h i.v. injection of DiD-labeled Nano-Folox, major organs and tumors were collected and analyzed using the IVIS® Kinetics Optical System, with the excitation wavelength at 640 nm and the emission wavelength at 670 nm. The concentration of platinum in major organs and tumors was also measured using ICP-MS^8.

CT26 cells = assay: MTT cytotoxicity assay, CT26; type: cell-based; settings: Mus musculus; CT26, 24 h incubation
Method: (§2) MTT assay was applied to determine in vitro cytotoxicity. CT26 and Hepa1-6 cells (1×10^4/well) were cultured within 96-well plates, respectively. Following one day incubation, 5-Fu, Nano-dUMP and Nano-FdUMP were added to cells for 24 h. […] IC50 was calculated using the GraphPad Prism software.

Hepa1-6 cells = assay: MTT cytotoxicity assay, Hepa1-6; type: cell-based; settings: Mus musculus; Hepa1-6, 24 h incubation
Method: as §2

Q: Which “proliferation of CT26-FL3 cells” value (CT26-FL3 cells; FnA alone, data not shown) does the source give for Nc1nc2c(c(=O)[nH]1)N(C=O)C(CNc1ccc(C(=O)N[C@@H](CCC(=O)O)C(=O)O)cc1)CN2 (stereo partly shown) [FnA, folinic acid] here?
A: not inhibited

Q: With Nc1nc(=O)c2c([nH]1)NCC(CNc1ccc(C(=O)NC3CCC(=O)[O][Pt]4([NH]C5CCCCC5[NH]4)[O]C3=O)cc1)N2C=O (stereo not shown) [Pt(DACH).FnA precipitate, dihydrate(1,2-diaminocyclohexane)platinum(II)-folinic acid] as the molecule, how does the solubility in water [1] read?
A: poorly soluble in water

Q: What about the “particle size of the DOPA-stabilized precipitate” value [2] of the same molecule?
A: ~100 nm

Q: With O=c1[nH]c(=O)n([C@H]2C[C@H](O)[C@@H](COP(=O)(O)O)O2)cc1F [FdUMP, 5-Fluoro-2′-deoxyuridine 5′-monophosphate] as the molecule, how does the permeability into cells (cells) read?
A: impermeable into cells

Q: With O=C1[O][Pt]2([NH][C@@H]3CCCC[C@H]3[NH]2)[O]C1=O [OxP, oxaliplatin] as the molecule, how does the “half-life (t1/2) of platinum” value [3] read?
A: ~8 min

Q: What about the “liver uptake of platinum” value [4] of the same molecule?
A: ~35 % ID/g

Q: And the “tumor accumulation of platinum” value [4]?
A: ~15 % ID/g

Q: And the IC50 (CT26-FL3 cells; 24 h incubation, read-out: IC50 (50% cell growth inhibition))?
A: 24 µM

Q: Which IC50 (CT26 cells) does the source give for O=c1[nH]cc(F)c(=O)[nH]1 [5-Fu, 5-fluorouracil] here?
A: ~70 µM

Q: And the IC50 (Hepa1-6 cells)?
A: ~70 µM
